Patent US12685726B2, “Sulfoximines as inhibitors of NaV1.8” (Gruenenthal GmbH, priority 2022, dated 2026)
pIC50: −log10 of the molar value.

Biological target: T1, human NaV 1.8 (Homo sapiens, UniProt Q9Y5Y9)
T1 construct: expressed in transfected cells; host or cells: HEK (recombinant cell line)
Assay: Automated whole-cell patch clamp (Qube384) voltage-clamp recordings of sodium currents in HEK-NaV1.8 cell line
Type: cell-based
Settings: read-out: Potency category (human NaV 1.8 IC50)
Experimental: Electrophysiology: Voltage-Clamp Recordings
The following NaV1.8 recombinant cell line was used for recordings: HEK-NaV1.8 (NM_006514.1) with b3 (NM_018400.3).
Sodium currents were measured using the patch clamp technique in the whole-cell configuration using the Qube384 (Sophion A/S, Copenhagen, Denmark) automated voltage clamp platform. “Multi hole” plates were used for the cell line expressing NaV1.8 while “single hole” plates were used for the recombinant cell lines expressing the other subtypes. Appropriate filters (for minimum seal resistance and minimum current size) and series resistance compensation (for high quality sodium channel recordings) were applied. Data was collected at ambient room temperature or 19° C.
The recording extracellular solution contained (in mM): NaCl 145 mM, KCl 4 mM, CaCl2 2 mM, MgCl2 1 mM, HEPES 10 mM, Glucose 10 mM, pH 7.4 (NaOH). The intracellular recording solution contained (in mM): CsF 120 mM, CsCl 20 mM, NaCl 10 mM, EGTA 10 mM, HEPES 10 mM, pH 7.2 (CsOH). Currents were recorded at 25 kHz sampling frequency and filtered at 5 kHz. Series resistance compensation was applied at 65%.
Vehicle (VEH) is the control condition where cells are exposed to 0.3% DMSO without compound. All runs include VEH controls being exposed to the same voltage protocols to assess non-compound related phenomena such as run down and then used to isolate compound dependent effects on currents.
To check for state-dependent inhibition, the following voltage-sequence was applied every 20 seconds:
From a resting membrane potential of −120 mV, the first test pulse (P1; 20 ms to −10 mV) was applied to check for channels in the Resting State followed by a brief recovery (100 ms to −120 mV), then holding the membrane voltage to V1/2 (4 seconds at voltage to obtain half the channel at Rest and half Inactivated) with a subsequent second test pulse (P2; 20 ms to −10 mV) to check for channels in the Inactivated State, followed by another brief recovery (20 ms to −120 mV) and a final third test pulse (P3; 20 ms to −10 mV) to check for recovered channels.
To check for frequency-dependent inhibition, a 10 Hz protocol and a 20 Hz protocol were applied; namely,
From a resting membrane potential of −120 mV, 40-pulses (10 ms to −10 mV) was applied at 10 Hz (at 100 ms between pulses) and then at 20 Hz (at 50 ms between pulses).
Each parameter was recorded (P1, P2, P3, P40 from 10 Hz and P40 from 20 Hz) during a control period (lasting 5 minutes) when establishing the baseline and during compound period (lasting ~12 minutes) when test compound (or vehicle) was applied. For each parameter, the value at the end of the compound period was normalized to the vehicle baseline; as follows
To adjust for any variance in the Na^+ current signal during the compound period (owing to cumulative inactivation independent of compound or shifts in biophysics over time), a dedicated segment of the recording wells in each 384 plate were dedicated to having only vehicle exposure. These vehicle-only recordings were used to correct for any apparent “run-up” or “run-down” in the experiment.
The adjusted inhibition was calculated as follows: […]
Percent inhibition was determined and IC50 values were calculated using a 4 parameter logistic model within XLFit Software (IDBS, Boston MA): F
[formula] where A and B are the maximal and minimum inhibition respectively, C is the IC50 concentration and D is the (Hill) slope.

T1 sequence (Q9Y5Y9 whole entry): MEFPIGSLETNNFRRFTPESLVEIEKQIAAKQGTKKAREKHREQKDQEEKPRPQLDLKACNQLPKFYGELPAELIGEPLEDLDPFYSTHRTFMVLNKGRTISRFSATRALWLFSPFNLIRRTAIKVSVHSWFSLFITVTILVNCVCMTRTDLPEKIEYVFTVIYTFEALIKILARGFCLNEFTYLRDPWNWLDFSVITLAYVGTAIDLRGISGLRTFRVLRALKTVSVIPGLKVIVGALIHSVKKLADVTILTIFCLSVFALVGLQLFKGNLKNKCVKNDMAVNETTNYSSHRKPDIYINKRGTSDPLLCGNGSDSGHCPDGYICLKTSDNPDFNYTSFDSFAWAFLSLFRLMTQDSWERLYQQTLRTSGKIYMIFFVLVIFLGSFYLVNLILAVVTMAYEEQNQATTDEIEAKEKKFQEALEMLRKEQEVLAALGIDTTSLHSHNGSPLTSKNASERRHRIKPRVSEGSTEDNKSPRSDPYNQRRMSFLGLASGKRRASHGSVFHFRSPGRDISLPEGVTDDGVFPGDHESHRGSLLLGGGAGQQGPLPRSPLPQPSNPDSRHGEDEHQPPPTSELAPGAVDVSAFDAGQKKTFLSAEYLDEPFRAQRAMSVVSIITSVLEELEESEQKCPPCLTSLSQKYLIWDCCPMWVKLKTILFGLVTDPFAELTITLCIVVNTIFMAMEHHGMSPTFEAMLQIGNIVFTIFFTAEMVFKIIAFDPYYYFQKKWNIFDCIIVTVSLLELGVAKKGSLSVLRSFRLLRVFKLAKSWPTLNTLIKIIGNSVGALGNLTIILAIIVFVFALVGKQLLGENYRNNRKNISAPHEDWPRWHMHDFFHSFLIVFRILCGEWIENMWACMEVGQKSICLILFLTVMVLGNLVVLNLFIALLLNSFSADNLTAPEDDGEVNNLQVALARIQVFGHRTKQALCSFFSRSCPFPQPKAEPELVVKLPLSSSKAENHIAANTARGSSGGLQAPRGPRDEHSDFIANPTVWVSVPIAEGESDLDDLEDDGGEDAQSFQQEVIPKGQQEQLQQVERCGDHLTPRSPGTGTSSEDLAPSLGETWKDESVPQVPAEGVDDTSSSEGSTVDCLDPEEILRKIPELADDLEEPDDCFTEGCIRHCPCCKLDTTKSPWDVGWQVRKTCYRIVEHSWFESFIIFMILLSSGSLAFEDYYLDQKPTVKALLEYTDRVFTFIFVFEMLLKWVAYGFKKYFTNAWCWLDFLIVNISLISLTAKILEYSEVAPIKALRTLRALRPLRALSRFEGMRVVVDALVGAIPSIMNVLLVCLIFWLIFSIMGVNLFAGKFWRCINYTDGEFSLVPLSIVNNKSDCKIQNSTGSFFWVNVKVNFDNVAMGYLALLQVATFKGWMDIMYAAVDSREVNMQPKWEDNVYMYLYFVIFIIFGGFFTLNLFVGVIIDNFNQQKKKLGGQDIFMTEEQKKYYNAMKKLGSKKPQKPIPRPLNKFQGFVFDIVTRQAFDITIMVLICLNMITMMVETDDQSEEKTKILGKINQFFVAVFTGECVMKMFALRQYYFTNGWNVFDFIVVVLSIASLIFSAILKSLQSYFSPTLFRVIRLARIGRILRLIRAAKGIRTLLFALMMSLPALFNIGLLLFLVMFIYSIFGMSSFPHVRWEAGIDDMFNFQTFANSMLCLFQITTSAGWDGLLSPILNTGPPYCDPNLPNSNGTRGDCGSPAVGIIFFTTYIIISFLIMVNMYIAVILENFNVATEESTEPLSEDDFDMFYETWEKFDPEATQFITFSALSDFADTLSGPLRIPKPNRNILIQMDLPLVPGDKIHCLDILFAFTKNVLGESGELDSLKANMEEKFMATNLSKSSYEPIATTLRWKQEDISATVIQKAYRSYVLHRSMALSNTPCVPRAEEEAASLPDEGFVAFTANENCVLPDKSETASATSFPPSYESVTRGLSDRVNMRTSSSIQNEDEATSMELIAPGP

pIC50, ≥ 7.00:
C[S@](=N)(=O)c1cc(NC(=O)c2c(C(F)(F)F)c(C3CC3)nn2C[C@]2(C)C[C@H](C(F)(F)F)C2)ccn1 (single isomer, unassigned) [Example 86b, 3-cyclopropyl-1-(((trans)-1-methyl-3-(trifluoromethyl)cyclobutyl)methyl)-N-(2-(S-methylsulfonimidoyl)pyridin-4-yl)-4-(trifluoromethyl)-1H-pyrazole-5-carboxamide]
CC1(Cn2nc(C34CC(F)(C3)C4)c(C(F)(F)F)c2C(=O)Nc2cccc(S(C)(=N)=O)c2)CC(F)(F)C1 (single isomer, unassigned) [Example 111b, 1-((3,3-difluoro-1-methylcyclobutyl)methyl)-3-(3-fluorobicyclo[1.1.1]pentan-1-yl)-N-(3-(S-methylsulfonimidoyl)phenyl)-4-(trifluoromethyl)-1H-pyrazole-5-carboxamide]
C[S@@](=N)(=O)c1cc(NC(=O)c2c(C(F)(F)F)c(C3CC3)nn2C[C@@H]2C(F)(F)C23CC3)ccn1 (single isomer, unassigned) [Example 79c, 3-cyclopropyl-1-((2,2-difluorospiro[2.2]pentan-1-yl)methyl)-N-(2-(S-methylsulfonimidoyl)pyridin-4-yl)-4-(trifluoromethyl)-1H-pyrazole-5-carboxamide]
CC1(Cn2nc(C34CC(F)(C3)C4)c(C(F)(F)F)c2C(=O)Nc2ccc(F)c(S(C)(=N)=O)c2)CC(F)(F)C1 (single isomer, unassigned) [Example 141b, 1-((3,3-Difluoro-1-methylcyclobutyl)methyl)-N-(4-fluoro-3-(S-methylsulfonimidoyl)phenyl)-3-(3-fluorobicyclo[1.1.1]pentan-1-yl)-4-(trifluoromethyl)-1H-pyrazole-5-carboxamide]
CC1(Cn2nc(C(C)(C)C)c(C(F)(F)F)c2C(=O)Nc2ccnc(S(C)(=N)=O)c2)CC(F)(F)C1 (single isomer, unassigned) [Example 143a, 3-(Tert-butyl)-1-((3,3-difluoro-1-methylcyclobutyl)methyl)-N-(2-(S-methylsulfonimidoyl)pyridin-4-yl)-4-(trifluoromethyl)-1H-pyrazole-5-carboxamide]
CC1(Cn2nc(C3CC3(F)F)c(C(F)(F)F)c2C(=O)Nc2ccnc(S(C)(=N)=O)c2)CC(F)(F)C1 (single isomer, unassigned) [Example 63a, 1-((3,3-Difluoro-1-methylcyclobutyl)methyl)-3-(2,2-difluorocyclopropyl)-N-(2-(S-methylsulfonimidoyl)pyridin-4-yl)-4-(trifluoromethyl)-1H-pyrazole-5-carboxamide]
CC1(Cn2nc(C3CC(F)(F)C3)c(C(F)(F)F)c2C(=O)Nc2ccnc(S(C)(=N)=O)c2)CC(F)(F)C1 (single isomer, unassigned) [Example 57b, 1-((3,3-Difluoro-1-methylcyclobutyl)methyl)-3-(3,3-difluorocyclobutyl)-N-(2-(S-methylsulfonimidoyl)pyridin-4-yl)-4-(trifluoromethyl)-1H-pyrazole-5-carboxamide]
CC1(Cn2nc(C3(F)CC3)c(C(F)(F)F)c2C(=O)Nc2cccc(S(=N)(=O)C(F)(F)F)c2)CC(F)(F)C1 (stereo not drawn) [Example 131, 1-((3,3-Difluoro-1-methylcyclobutyl)methyl)-3-(1-fluorocyclopropyl)-4-(trifluoromethyl)-N-(3-(S-(trifluoromethyl)sulfonimidoyl)phenyl)-1H-pyrazole-5-carboxamide]
Cc1c(C(C)(F)F)nn(CC2(C)CC(F)(F)C2)c1C(=O)Nc1ccnc(S(C)(=N)=O)c1 (single isomer, unassigned) [Example 5a, 1-((3,3-difluoro-1-methylcyclobutyl)methyl)-3-(1,1-difluoroethyl)-4-methyl-N-(2-(S-methylsulfonimidoyl)pyridin-4-yl)-1H-pyrazole-5-carboxamide]
